# Biological target: T1, human full-length recombinant PKC βII (Homo sapiens, UniProt P05771)
# T1 construct: Active human full-length recombinant PKC βII; purchased Invitrogen GmbH, Darmstadt, Germany
# Assay: Determination of PKC βII inhibition (Caliper mobility shift kinase assay)
# Assay type: biochemical
# Conditions: final compound concentration 1.14 μM (±0.15 μM); 60 min incubation at 32° C.
# Outline: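 Compound was tested at a final 1.14 µM (±0.15 µM), with % inhibition derived from the product/(substrate+product) peak ratio on a Caliper mobility-shift read-out. Full-length PKC βII was activated by CaCl2, PS and DAG in pH 7.4 Hepes/MgCl2. Peptide and ATP were at 3 µM and 120 µM in the added mix. Incubation was 60 min at 32 °C.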
# T1 sequence (P05771 1-673 isoform P05771-2): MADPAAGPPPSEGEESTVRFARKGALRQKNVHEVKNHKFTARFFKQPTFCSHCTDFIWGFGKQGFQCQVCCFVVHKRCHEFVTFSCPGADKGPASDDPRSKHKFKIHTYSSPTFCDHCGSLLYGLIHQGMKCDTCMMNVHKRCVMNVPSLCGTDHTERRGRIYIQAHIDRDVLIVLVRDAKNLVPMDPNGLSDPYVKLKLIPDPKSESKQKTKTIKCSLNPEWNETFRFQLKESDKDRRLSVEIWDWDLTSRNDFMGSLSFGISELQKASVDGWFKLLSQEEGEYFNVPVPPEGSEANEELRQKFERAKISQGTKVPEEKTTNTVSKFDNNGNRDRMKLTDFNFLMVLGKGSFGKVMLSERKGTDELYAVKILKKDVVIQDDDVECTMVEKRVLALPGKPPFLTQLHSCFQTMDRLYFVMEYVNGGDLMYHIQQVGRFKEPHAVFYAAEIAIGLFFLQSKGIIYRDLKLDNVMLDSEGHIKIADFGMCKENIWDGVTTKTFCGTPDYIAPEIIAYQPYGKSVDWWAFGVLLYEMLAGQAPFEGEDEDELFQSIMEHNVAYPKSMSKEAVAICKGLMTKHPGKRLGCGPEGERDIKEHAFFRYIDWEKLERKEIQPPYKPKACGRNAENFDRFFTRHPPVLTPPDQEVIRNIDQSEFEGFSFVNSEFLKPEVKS
row,inhibition at 1.14 µM,Structure (SMILES)
1,65%,"COCC(=O)N1CCCN(Cc2cc(-c3ccc(O)cc3F)nc3[nH]nc(C)c23)CC1C (stereo not shown) [Example 79, 1-{4-[6-(2-Fluoro-4-hydroxy-phenyl)-3-methyl-1H-pyrazolo[3,4-b]pyridin-4-ylmethyl]-2-methyl-[1,4]diazepan-1-yl}-2-methoxy-ethanone]"
2,86%,"COC(=O)CN1CC(C)(C)N(Cc2cc(-c3ccc(O)cc3)nc3[nH]nc(C)c23)CC1(C)C [Example 86, {4-[6-(4-Hydroxy-phenyl)-3-methyl-1H-pyrazolo[3,4-b]pyridin-4-ylmethyl]-2,2,5,5-tetramethyl-piperazin-1-yl}-acetic acid methyl ester]"
3,89%,"CCNC(=O)N1CC(C)(C)N(Cc2cc(-c3ccc(O)cc3)nc3[nH]nc(C)c23)CC1(C)C [Example 88, 4-[6-(4-Hydroxy-phenyl)-3-methyl-1H-pyrazolo[3,4-b]pyridin-4-ylmethyl]-2,2,5,5-tetramethyl-piperazine-1-carboxylic acid ethylamide]"
4,81%,"Cc1n[nH]c2nc(-c3ccc(O)cc3)cc(CN3CCN[C@H](CC(F)(F)F)C3)c12 [Example 91, 4-{3-Methyl-4-[(R)-3-(2,2,2-trifluoro-ethyl)-piperazin-1-ylmethyl]-1H-pyrazolo[3,4-b]pyridin-6-yl}-phenol]"
5,99%,"Cc1n[nH]c2nc(-c3ccc(O)cc3)cc(CN3CCNC[C@H]3CC(F)(F)F)c12 [Example 92, 4-{3-Methyl-4-[(R)-2-(2,2,2-trifluoro-ethyl)-piperazin-1-ylmethyl]-1H-pyrazolo[3,4-b]pyridin-6-yl}-phenol]"
6,81%,"CNC1CCN(Cc2cc(-c3ccc(O)cc3)nc3[nH]nc(C)c23)C1 (stereo not shown) [Example 93, 4-[3-Methyl-4-(3-methylamino-pyrrolidin-1-ylmethyl)-1H-pyrazolo[3,4-b]pyridin-6-yl]-phenol]"
7,87%,"Cc1n[nH]c2nc(-c3ccc(O)cc3F)cc(C(C)N3C[C@@H](C)N[C@@H](C)C3)c12 (stereo partly drawn) [Example 98, 4-{4-[1-((3S,5R)-3,5-Dimethyl-piperazin-1-yl)-ethyl]-3-methyl-1H-pyrazolo[3,4-b]pyridin-6-yl}-3-fluoro-phenol]"
8,85%,"Cc1n[nH]c2nc(-c3ccc(O)cc3F)cc(CN3CCNC[C@H]3c3ccc(C(C)C)cc3)c12 [Example 102, 3-Fluoro-4-{4-[(R)-2-(4-isopropyl-phenyl)-piperazin-1-ylmethyl]-3-methyl-1H-pyrazolo[3,4-b]pyridin-6-yl}-phenol]"
9,53%,"Cc1n[nH]c2nc(-c3ccc(O)cc3F)cc(CN3CCNC[C@@H]3c3ccc(C(F)(F)F)cc3)c12 [Example 103, 3-Fluoro-4-{3-methyl-4-[(S)-2-(4-trifluoromethyl-phenyl)-piperazin-1-ylmethyl]-1H-pyrazolo[3,4-b]pyridin-6-yl}-phenol]"
10,83%,"Cc1n[nH]c2nc(-c3ccc(O)cc3F)cc(CN3CCNC[C@H]3c3ccc(C(F)(F)F)cc3)c12 [Example 104, 3-Fluoro-4-{3-methyl-4-[(R)-2-(4-trifluoromethyl-phenyl)-piperazin-1-ylmethyl]-1H-pyrazolo[3,4-b]pyridin-6-yl}-phenol]"
11,100%,"Cc1n[nH]c2nc(-c3ccc(O)cc3F)cc(CN3CCNC[C@@H]3c3ccc(F)cc3)c12 [Example 105, 3-Fluoro-4-{4-[(S)-2-(4-fluoro-phenyl)-piperazin-1-ylmethyl]-3-methyl-1H-pyrazolo[3,4-b]pyridin-6-yl}-phenol]"
12,104%,"Cc1n[nH]c2nc(-c3ccc(O)cc3F)cc(CN3CCNC[C@H]3c3ccc(F)cc3)c12 [Example 106, 3-Fluoro-4-{4-[(R)-2-(4-fluoro-phenyl)-piperazin-1-ylmethyl]-3-methyl-1H-pyrazolo[3,4-b]pyridin-6-yl}-phenol]"

# More lines, now with the values behind:
row,Structure (SMILES),inhibition at 1.14 µM
1,"CC(=O)N1CC(C)(C)N(Cc2cc(-c3ccc(O)cc3F)nc3[nH]nc(C)c23)CC1(C)C [Example 78, 1-{4-[6-(2-Fluoro-4-hydroxy-phenyl)-3-methyl-1H-pyrazolo[3,4-b]pyridin-4-ylmethyl]-2,2,5,5-tetramethyl-piperazin-1-yl}-ethanone]",97%
2,"Cc1n[nH]c2nc(-c3ccc(O)cc3F)cc(CN3CC(C)(C)N(C(=O)CO)CC3(C)C)c12 [Example 80, 1-{4-[6-(2-Fluoro-4-hydroxy-phenyl)-3-methyl-1H-pyrazolo[3,4-b]pyridin-4-ylmethyl]-2,2,5,5-tetramethyl-piperazin-1-yl}-2-hydroxy-ethanone]",93%
3,"COCC(=O)NC1(C)CCCN(Cc2cc(-c3ccc(O)cc3F)nc3[nH]nc(C)c23)C1 (stereo not shown) [Example 81, N-{1-[6-(2-Fluoro-4-hydroxy-phenyl)-3-methyl-1H-pyrazolo[3,4-b]pyridin-4-ylmethyl]-3-methyl-piperidin-3-yl}-2-methoxy-acetamide]",97%
4,"COCC(=O)N1CC(C)N(Cc2cc(-c3ccc(O)cc3)nc3[nH]nc(C)c23)CC12CCCC2 (stereo not shown) [Example 82, 1-{9-[6-(4-Hydroxy-phenyl)-3-methyl-1H-pyrazolo[3,4-b]pyridin-4-ylmethyl]-8-methyl-6,9-diaza-spiro[4.5]dec-6-yl}-2-methoxy-ethanone]",85%
5,"Cc1n[nH]c2nc(-c3ccc(O)cc3)cc(CN3CC(C)(C)N(CCC(F)(F)F)CC3(C)C)c12 [Example 83, 4-{3-Methyl-4-[2,2,5,5-tetramethyl-4-(3,3,3-trifluoro-propyl)-piperazin-1-ylmethyl]-1H-pyrazolo[3,4-b]pyridin-6-yl}-phenol]",69%
6,"Cc1n[nH]c2nc(-c3ccc(O)cc3)cc(CN3CC(C)(C)N(C)CC3(C)C)c12 [Example 84, 4-[3-Methyl-4-(2,2,4,5,5-pentamethyl-piperazin-1-ylmethyl)-1H-pyrazolo[3,4-b]pyridin-6-yl]-phenol]",98%
7,"CNCCN1CC(C)(C)N(Cc2cc(-c3ccc(O)cc3)nc3[nH]nc(C)c23)CC1(C)C [Example 85, 4-{3-Methyl-4-[2,2,5,5-tetramethyl-4-(2-methylamino-ethyl)-piperazin-1-ylmethyl]-1H-pyrazolo[3,4-b]pyridin-6-yl}-phenol]",101%
8,"COC(=O)CNC(=O)N1CC(C)(C)N(Cc2cc(-c3ccc(O)cc3)nc3[nH]nc(C)c23)CC1(C)C [Example 87, ({4-[6-(4-Hyd roxy-phenyl)-3-methyl-1H-pyrazolo[3,4-b]pyridin-4-ylmethyl]-2,2,5,5-tetramethyl-piperazine-1-carbonyl}-amino)-acetic acid methyl ester]",92%
9,"CCNC(=O)N1CCCN(Cc2cc(-c3ccc(O)cc3F)nc3[nH]nc(C)c23)CC1C (stereo not shown) [Example 89, 4-[6-(2-Fluoro-4-hydroxy-phenyl)-3-methyl-1H-pyrazolo[3,4-b]pyridin-4-ylmethyl]-2-methyl-[1,4]diazepane-1-carboxylic acid ethylamide]",76%
10,"COCC(=O)N1CC(C)(C)N(Cc2cc(-c3ccc(O)cc3)nc3[nH]nc(C)c23)CC1(C)C [Example 90, 1-{4-[6-(4-Hydroxy-phenyl)-3-methyl-1H-pyrazolo[3,4-b]pyridin-4-ylmethyl]-2,2,5,5-tetramethyl-piperazin-1-yl}-2-methoxy-ethanone]",99%
11,"Cc1n[nH]c2nc(-c3ccc(O)cc3)cc(CN(C)C3CCNC3)c12 (stereo not shown) [Example 94, 4-{3-Methyl-4-[(methyl-pyrrolidin-3-yl-amino)-methyl]-1H-pyrazolo[3,4-b]pyridin-6-yl}-phenol]",92%
12,"Oc1ccc(-c2cc(CN3CCNCC3)c3c(C4CC4)n[nH]c3n2)cc1 [Example 95, 4-(3-Cyclopropyl-4-piperazin-1-ylmethyl-1H-pyrazolo[3,4-b]pyridin-6-yl)-phenol]",53%
13,"CCc1n[nH]c2nc(-c3ccc(O)cc3)cc(CN3CCNCC3)c12 [Example 96, 4-(3-Ethyl-4-piperazin-1-ylmethyl-1H-pyrazolo[3,4-b]pyridin-6-yl)-phenol]",74%
14,"Cc1n[nH]c2nc(-c3ccc(O)cc3F)cc(C(C)N3CCNCC3)c12 (stereo not shown) [Example 97, 3-Fluoro-4-[3-methyl-4-(1-piperazin-1-yl-ethyl)-1H-pyrazolo[3,4-b]pyridin-6-yl]-phenol]",96%
15,"Cc1n[nH]c2nc(-c3ccc(O)cc3F)cc(CN3C[C@@H](c4ccccc4)NC[C@@H]3C)c12 [Example 99, 3-Fluoro-4-[3-methyl-4-((2S,5R)-2-methyl-5-phenyl-piperazin-1-ylmethyl)-1H-pyrazolo[3,4-b]pyridin-6-yl]-phenol]",92%
16,"Cc1n[nH]c2nc(-c3ccc(O)cc3F)cc(CN3C[C@H](c4ccccc4)NC[C@H]3C)c12 [Example 100, 3-Fluoro-4-[3-methyl-4-((2R,5S)-2-methyl-5-phenyl-piperazin-1-ylmethyl)-1H-pyrazolo[3,4-b]pyridin-6-yl]-phenol]",86%
17,"Cc1n[nH]c2nc(-c3ccc(O)cc3F)cc(CN3CCNC[C@@H]3c3ccc(C(C)C)cc3)c12 [Example 101, 3-Fluoro-4-{4-[(S)-2-(4-isopropyl-phenyl)-piperazin-1-ylmethyl]-3-methyl-1H-pyrazolo[3,4-b]pyridin-6-yl}-phenol]",52%
18,"Cc1n[nH]c2nc(-c3ccc(O)cc3F)cc(CN3CCNC[C@@H]3C(F)(F)F)c12 [Example 107, 3-Fluoro-4-[3-methyl-4-((R)-2-trifluoromethyl-piperazin-1-ylmethyl)-1H-pyrazolo[3,4-b]pyridin-6-yl]-phenol]",101%
19,"Cc1n[nH]c2nc(-c3ccc(O)cc3F)cc(CN3CCNC[C@H]3C(F)(F)F)c12 [Example 108, 3-Fluoro-4-[3-methyl-4-((S)-2-trifluoromethyl-piperazin-1-ylmethyl)-1H-pyrazolo[3,4-b]pyridin-6-yl]-phenol]",102%
